Activity calls are given as the source filed them. The rule behind the calls is not given here. Some results are limits rather than exact numbers.

A word on the IC50: it is the midpoint of a concentration-inhibition curve. Read a low IC50 as higher potency.

A short description of assay [1]: Antiinflammatory activity against LPS-induced HFLS-RA cells. Format: functional, cell-based, Homo sapiens.
Assay [2] concerns Rattus norvegicus. Briefly: Antiinflammatory activity against CFA-induced rheumatoid arthritis Wistar rat model assessed as decrease in synovial hyperplasia at 30 mg/kg, ig after 28 days. Format: functional, organism-based. Particulars: time 28.0 day.
In assay [3] the test system is Rattus norvegicus. The assay can be described thus: Antiinflammatory activity against CFA-induced rheumatoid arthritis Wistar rat model assessed as decrease in IL-1beta level at 30 mg/kg, ig measured after 28 days. Particulars: time 28.0 day. Format: functional, organism-based.
The subject of assay [4] is Rattus norvegicus. Briefly: Antiinflammatory activity against CFA-induced rheumatoid arthritis Wistar rat model assessed as decrease in TNFalpha level at 30 mg/kg, ig measured after 28 days. Particulars: time 28.0 day. Format: functional, organism-based.
Assay [5] has as its system Rattus norvegicus. The assay can be described thus: Antiarthritic activity in CFA-induced rheumatoid arthritis Wistar rat model assessed as reduction in arthritis index at 30 mg/kg, ig for 28 days. Format: functional, organism-based. The note with it: time 28.0 day.
Assay [6] deals with Rattus norvegicus. Briefly: Antiinflammatory activity against CFA-induced rheumatoid arthritis Wistar rat model assessed as decrease in spleen index at 30 mg/kg, ig measured after 28 days. Format: functional, organism-based. Particulars: time 28.0 day.
Assay [7] has as its system Rattus norvegicus. The assay can be described thus: Antiarthritic activity in CFA-induced rheumatoid arthritis Wistar rat model assessed as increase in weight at 30 mg/kg, ig measured after 14 to 28 days. Format: functional, organism-based. The note with it: time 14-28 day.
Assay [8] has as its system Rattus norvegicus. Briefly: Antiinflammatory activity against CFA-induced rheumatoid arthritis Wistar rat model assessed as decrease in paw swelling at 30 mg/kg, ig after 28 days. Format: functional, organism-based. The note with it: time 28.0 day.
Assay [9] concerns HFLS-RA. The assay can be described thus: Antiinflammatory activity against LPS-induced HFLS-RA cells assessed as reduction in IL-1alpha expression. Format: functional, cell-based. The note with it: Homo sapiens, dose 5-20 µM.
For assay [10], the system named is HFLS-RA. Briefly: Antiinflammatory activity against LPS-induced HFLS-RA cells assessed as reduction in TNF-alpha expression. The note with it: Homo sapiens, dose 5-20 µM. Format: functional, cell-based.
Assay [11] has as its system Rattus norvegicus. The assay can be described thus: Antiinflammatory activity against CFA-induced rheumatoid arthritis Wistar rat model assessed as decrease in IL6 level at 30 mg/kg, ig measured after 28 days. Format: functional, organism-based. Particulars: time 28.0 day.
The subject of assay [12] is Rattus norvegicus. Briefly: Antiinflammatory activity against CFA-induced rheumatoid arthritis Wistar rat model assessed as decrease in cartilage damage at 30 mg/kg, ig after 28 days. Format: functional, organism-based. The note with it: time 28.0 day.
Assay [13] relates to Rattus norvegicus. Briefly: Antiarthritic activity in CFA-induced rheumatoid arthritis Wistar rat model assessed as reduction in foot swelling at 30 mg/kg, ig measured after 21 to 28 days. Format: functional, organism-based. Particulars: time 21-28 day.
In assay [14] the test system is HFLS-RA. The assay can be described thus: Antiinflammatory activity against LPS-induced HFLS-RA cells assessed as reduction in IL-6 expression. Format: functional, cell-based. Particulars: Homo sapiens, dose 5-20 µM.
Assay [15] relates to HFLS-RA. The assay can be described thus: Antiinflammatory activity against LPS-induced HFLS-RA cells assessed as reduction in IL-1beta expression. The note with it: Homo sapiens, dose 5-20 µM. Format: functional, cell-based.
Assay [16] has as its system Rattus norvegicus. The assay can be described thus: Antiinflammatory activity against CFA-induced rheumatoid arthritis Wistar rat model assessed as decrease in cell infiltration at 30 mg/kg, ig after 28 days. Format: functional, organism-based. Particulars: time 28.0 day.
Assay [17] relates to Rattus norvegicus. The assay can be described thus: Antiinflammatory activity against CFA-induced rheumatoid arthritis Wistar rat model assessed as decrease in cell infiltration at 3 mg/kg, ig after 28 days. Format: functional, organism-based. The note with it: time 28.0 day.
The test system of assay [18] is Rattus norvegicus. Briefly: Antiinflammatory activity against CFA-induced rheumatoid arthritis Wistar rat model assessed as decrease in cartilage damage at 3 mg/kg, ig after 28 days. Format: functional, organism-based. Particulars: time 28.0 day.
In assay [19] the test system is Rattus norvegicus. The assay can be described thus: Antiinflammatory activity against CFA-induced rheumatoid arthritis Wistar rat model assessed as decrease in synovial hyperplasia at 3 mg/kg, ig after 28 days. Format: functional, organism-based. Particulars: time 28.0 day.
Assay [20] has as its system Rattus norvegicus. The assay can be described thus: Antiinflammatory activity against CFA-induced rheumatoid arthritis Wistar rat model assessed as decrease in spleen index at 3 mg/kg, ig measured after 28 days. The note with it: time 28.0 day. Format: functional, organism-based.
Assay [21] deals with Rattus norvegicus. The assay can be described thus: Antiarthritic activity in CFA-induced rheumatoid arthritis Wistar rat model assessed as reduction in foot swelling at 3 mg/kg, ig measured after 21 to 28 days. Format: functional, organism-based. The note with it: time 21-28 day.
For assay [22], the system named is Rattus norvegicus. Briefly: Antiinflammatory activity against CFA-induced rheumatoid arthritis Wistar rat model assessed as decrease in TNFalpha level at 3 mg/kg, ig measured after 28 days. Format: functional, organism-based. Particulars: time 28.0 day.
In assay [23] the test system is Rattus norvegicus. The assay can be described thus: Antiinflammatory activity against CFA-induced rheumatoid arthritis Wistar rat model assessed as decrease in IL-1beta level at 3 mg/kg, ig measured after 28 days. The note with it: time 28.0 day. Format: functional, organism-based.
The test system of assay [24] is Rattus norvegicus. The assay can be described thus: Antiarthritic activity in CFA-induced rheumatoid arthritis Wistar rat model assessed as reduction in arthritis index at 3 mg/kg, ig for 28 days. Format: functional, organism-based. The note with it: time 28.0 day.
The subject of assay [25] is Rattus norvegicus. The assay can be described thus: Antiarthritic activity in CFA-induced rheumatoid arthritis Wistar rat model assessed as increase in weight at 3 mg/kg, ig measured after 14 to 28 days. Format: functional, organism-based. The note with it: time 14-28 day.
The test system of assay [26] is Rattus norvegicus. The assay can be described thus: Antiinflammatory activity against CFA-induced rheumatoid arthritis Wistar rat model assessed as decrease in IL6 level at 3 mg/kg, ig measured after 28 days. Format: functional, organism-based. The note with it: time 28.0 day.
Assay [27] deals with Sphingosine kinase 1 (Homo sapiens, UniProt Q9NYA1). The assay can be described thus: Inhibition of SphK1 (unknown origin).
Chain of Sphingosine kinase 1 (Q9NYA1 whole entry): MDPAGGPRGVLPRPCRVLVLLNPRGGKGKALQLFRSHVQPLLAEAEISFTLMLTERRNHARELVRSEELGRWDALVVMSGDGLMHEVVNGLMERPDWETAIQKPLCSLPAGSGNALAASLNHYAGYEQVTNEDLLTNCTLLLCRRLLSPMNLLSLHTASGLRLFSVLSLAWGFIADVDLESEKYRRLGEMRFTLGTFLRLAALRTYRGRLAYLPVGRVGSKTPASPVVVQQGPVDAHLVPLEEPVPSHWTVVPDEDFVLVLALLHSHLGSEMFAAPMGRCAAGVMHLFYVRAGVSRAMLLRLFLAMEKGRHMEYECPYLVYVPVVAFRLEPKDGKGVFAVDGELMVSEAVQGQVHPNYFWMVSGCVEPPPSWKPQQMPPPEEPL
The target of assay [28] is T1, Sphingosine kinase 2 (Homo sapiens, UniProt Q9NRA0).
T1 sequence (Q9NRA0 whole entry): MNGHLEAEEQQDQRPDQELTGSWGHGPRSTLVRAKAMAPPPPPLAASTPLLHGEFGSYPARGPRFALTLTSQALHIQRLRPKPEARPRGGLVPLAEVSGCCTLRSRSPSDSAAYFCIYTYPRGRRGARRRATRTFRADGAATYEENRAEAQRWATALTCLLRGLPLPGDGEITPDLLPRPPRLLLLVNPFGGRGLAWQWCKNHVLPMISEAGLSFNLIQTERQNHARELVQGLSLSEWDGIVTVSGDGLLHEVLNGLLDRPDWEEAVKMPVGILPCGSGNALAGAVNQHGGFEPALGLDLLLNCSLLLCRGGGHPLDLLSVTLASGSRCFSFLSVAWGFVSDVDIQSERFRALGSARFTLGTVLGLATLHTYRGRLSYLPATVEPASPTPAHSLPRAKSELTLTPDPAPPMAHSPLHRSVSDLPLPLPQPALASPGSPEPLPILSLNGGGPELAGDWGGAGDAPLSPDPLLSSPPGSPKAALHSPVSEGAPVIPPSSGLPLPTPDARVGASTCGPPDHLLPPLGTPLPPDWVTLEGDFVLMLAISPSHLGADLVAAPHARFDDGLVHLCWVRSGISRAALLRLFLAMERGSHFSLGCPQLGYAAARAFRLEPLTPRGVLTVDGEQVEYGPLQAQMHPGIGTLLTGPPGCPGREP
Briefly: Inhibition of SphK2 (unknown origin).

Turning to `Cc1c(F)c(F)c(COCCCCCCCCCC[C@H]2NC[C@H](N)[C@@H]2O)c(F)c1F`, inhibition in assay [1] was half-maximal at 11.4 µM (IC50).
Still for that read-out and setting: then `CCCCCCCCCCCC[C@H]1NC[C@H](N)[C@@H]1O`, with 94.8 µM; and `CC(OCCCCCCCCCC[C@H]1NC[C@H](N)[C@@H]1O)c1ccc(F)cc1` (some centres not stated), with 18.9 µM; and `N[C@H]1CN[C@H](CCCCCCCCCCCOC2CCOCC2)[C@H]1O`, with 11.2 µM.
`CC(OCCCCCCCCCC[C@H]1NC[C@H](N)[C@@H]1O)c1ccccc1` (some centres not stated) showed an IC50 in assay [1] of 24.8 µM.
With `CCCCCCCCCCCCCC[C@H]1NC[C@H](N)[C@@H]1O` [listing 1 of 3 here], the outcome in assay [2], in assay [3], in [4], in [5], in assay [6] and in [7] was Active. For the same compound, the result in assay [8], in [11], in assay [12], in assay [13] and in assay [16] was Active. For the same compound, the Activity result in assay [9], in assay [10], in assay [14] and in assay [15] was “Dose-dependent effect” throughout.
The compound `N[C@H]1CN[C@H](CCCCCCCCCOCC2CCCCC2)[C@H]1O` displayed an IC50 in [1] of 99.7 µM.
For the compound `N[C@H]1CN[C@H](CCCCCCCCCCOCc2ccc(F)cc2)[C@H]1O`, the IC50 in assay [1] is 10.7 µM.
On to `Cc1ccc(-c2cc(C(F)(F)F)nn2-c2ccc(S(N)(=O)=O)cc2)cc1`, for which the outcome in [17], in [18], in assay [19], in assay [20], in [21] and in [22] was Active. Further, the outcome in [23], in assay [24], in [25] and in assay [26] was Active.
Consider `N[C@H]1CN[C@H](CCCCCCCCCCOCc2ccc(C(F)(F)F)cc2)[C@H]1O`, for which the IC50 in assay [1] amounted to 19.6 µM.
`CCCCCCCCCCCCCC[C@H]1NC[C@H](N)[C@@H]1O` [listing 2 of 3 here]: the IC50 is greater than 100 µM in assay [27], 10.7 µM in [1] and greater than 100 µM in [28].
In the case of `N#Cc1ccc(COCCCCCCCCCC[C@H]2NC[C@H](N)[C@@H]2O)cc1`, in assay [1], the IC50 was 10.2 µM.
Turning to `CN(Cc1cnc2nc(N)nc(N)c2n1)c1ccc(C(=O)N[C@@H](CCC(=O)O)C(=O)O)cc1` [METHOTREXATE], half-maximal inhibition in [1] (IC50) required 5.48 µM.
Consider `CCCCCCCCCCCCCC[C@H]1NC[C@H](N)[C@@H]1O` [listing 3 of 3 here], for which the IC50 in [27] is 8.89 µM; in [1], 8.64 µM; in [28] it was greater than 100 µM.
Compound `CC(C)COCCCCCCCCCC[C@H]1NC[C@H](N)[C@@H]1O` came in with an IC50 in [1] of 18.1 µM.
The same measure, in the same setting: then `N[C@H]1CN[C@H](CCCCCCCCCOCc2ccccc2)[C@H]1O`, with 15.1 µM; and `COc1ccc(COCCCCCCCCCC[C@H]2NC[C@H](N)[C@@H]2O)c(OC)c1`, with 14.3 µM.
Still for that read-out and setting: with `N[C@H]1CN[C@H](CCCCCCCCCCOO)[C@H]1O` the figure was 116 µM; with `N[C@H]1CN[C@H](CCCCCCCCCCOCC2CCCCC2)[C@H]1O`, 51.2 µM; with `N[C@H]1CN[C@H](CCCCCCCCCCCOCC2CCCCC2)[C@H]1O`, 46.3 µM.
